From ChEMBL document CHEMBL5608182, “Synthesis and evaluation of neuroactive steroids with novel pharmacophore at C-21 let identify a compound with advantageous PK profile and higher EC50 and Emax as PAM on GABAA receptor” (Eur J Med Chem, 2024)

Tests used:
[1] = molecular target: T1, GABA-A receptor; alpha-1/beta-2/gamma-2 (Homo sapiens, UniProt P14867+P18507+P47870); test: (§1) Positive allosteric modulation of synaptic alpha1beta2gamma2 GABA-A receptor (unknown origin) transfected in LTK cells assessed as potentiation of GABA-induced peak current amplitude at -80 mV holding potential preincubated for 30 secs followed by GABA stimulation for 2 secs by Q-patch assay; format: cell-based
T1 sequence (P14867 whole entry): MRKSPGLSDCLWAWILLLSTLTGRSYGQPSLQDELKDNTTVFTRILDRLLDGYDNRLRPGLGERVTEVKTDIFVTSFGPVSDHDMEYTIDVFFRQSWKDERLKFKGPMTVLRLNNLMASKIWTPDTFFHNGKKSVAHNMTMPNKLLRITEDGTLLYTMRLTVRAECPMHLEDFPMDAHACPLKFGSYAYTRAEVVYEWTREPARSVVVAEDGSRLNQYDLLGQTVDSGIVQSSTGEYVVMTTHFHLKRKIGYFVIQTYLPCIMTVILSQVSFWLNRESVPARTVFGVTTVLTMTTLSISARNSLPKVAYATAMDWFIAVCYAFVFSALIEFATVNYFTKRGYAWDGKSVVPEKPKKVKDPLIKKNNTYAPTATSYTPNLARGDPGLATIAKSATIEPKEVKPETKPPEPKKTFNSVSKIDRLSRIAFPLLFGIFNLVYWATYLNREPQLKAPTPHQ
T1 sequence (P47870 whole entry): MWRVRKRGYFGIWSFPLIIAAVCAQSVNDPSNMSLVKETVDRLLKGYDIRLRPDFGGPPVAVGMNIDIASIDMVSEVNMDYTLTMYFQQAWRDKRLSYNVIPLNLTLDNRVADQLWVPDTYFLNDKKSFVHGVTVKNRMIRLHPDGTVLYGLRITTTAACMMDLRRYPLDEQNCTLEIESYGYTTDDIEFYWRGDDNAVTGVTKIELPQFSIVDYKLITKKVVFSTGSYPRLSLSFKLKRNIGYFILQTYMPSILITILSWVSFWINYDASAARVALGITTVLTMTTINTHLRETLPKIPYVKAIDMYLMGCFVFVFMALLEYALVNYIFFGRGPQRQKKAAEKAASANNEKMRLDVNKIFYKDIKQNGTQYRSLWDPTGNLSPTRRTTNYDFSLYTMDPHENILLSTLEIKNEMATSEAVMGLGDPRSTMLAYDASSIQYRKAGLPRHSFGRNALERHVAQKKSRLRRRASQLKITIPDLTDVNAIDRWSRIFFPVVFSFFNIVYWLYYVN
T1 sequence (P18507 whole entry): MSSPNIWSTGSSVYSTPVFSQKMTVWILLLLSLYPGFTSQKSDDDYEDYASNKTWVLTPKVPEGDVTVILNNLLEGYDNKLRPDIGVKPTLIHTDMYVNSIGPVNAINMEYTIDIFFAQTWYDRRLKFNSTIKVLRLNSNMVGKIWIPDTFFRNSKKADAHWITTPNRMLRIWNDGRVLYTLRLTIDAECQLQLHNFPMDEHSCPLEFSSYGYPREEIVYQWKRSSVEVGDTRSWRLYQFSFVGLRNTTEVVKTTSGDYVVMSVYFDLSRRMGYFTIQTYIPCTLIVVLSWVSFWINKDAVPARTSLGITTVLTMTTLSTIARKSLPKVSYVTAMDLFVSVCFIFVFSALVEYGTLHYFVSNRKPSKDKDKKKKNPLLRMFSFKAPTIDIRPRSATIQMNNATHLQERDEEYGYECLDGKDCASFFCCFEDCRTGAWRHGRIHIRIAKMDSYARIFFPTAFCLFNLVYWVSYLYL

[2] = Metabolic stability in Sprague-Dawley rat liver microsomes assessed as intrinsic clearance at 1 uM preincubated for 10 mins followed by NADPH addition by LC-MS analysis; format: ADME, Microsome; details: read-out: CLH
[3] = Metabolic stability in human liver microsomes assessed as intrinsic clearance at 1 uM preincubated for 10 mins followed by NADPH addition by LC-MS analysis; format: ADME, Microsome; details: read-out: CLH
[4] = Metabolic stability in Sprague-Dawley rat liver microsomes assessed as compound remaining at 1 uM preincubated for 10 mins followed by NADPH addition by LC-MS analysis; format: ADME, Microsome; details: read-out: Stability
[5] = Metabolic stability in human liver microsomes assessed as compound remaining at 1 uM preincubated for 10 mins followed by NADPH addition by LC-MS analysis; format: ADME, Microsome; details: read-out: Stability
[6] = molecular target: GABA-A receptor; alpha-1/beta-2/gamma-2 (Homo sapiens) (UniProt P14867+P47870+P18507); test: as §1, with “amplitude by measuring maximal efficacy at 0.01 to 10 uM” for “amplitude”, “assay relative to control” for “assay”; format: cell-based; details: filed as positive allosteric modulator, dose 0.01-10 µM, time 32.0 sec
[7] = molecular target: Gamma-aminobutyric acid receptor subunit alpha-4/beta3/delta (Homo sapiens, UniProt O14764+P28472+P48169); test: as §1, with “extrasynaptic alpha4beta3delta” for “synaptic alpha1beta2gamma2”, “CHO” for “LTK”, “manual patch” for “Q-patch”; format: cell-based
[8] = molecular target: Gamma-aminobutyric acid receptor subunit alpha-4/beta3/delta (Homo sapiens) (UniProt P28472+P48169+O14764); test: Positive allosteric modulation of extrasynaptic alpha4beta3delta GABA-A receptor (unknown origin) transfected in CHO cells assessed as potentiation of GABA-induced peak current amplitude by measuring maximal efficacy at 0.01 to 10 uM at -80 mV holding potential preincubated for 30 secs followed by GABA stimulation for 2 secs by manual patch assay relative to control; format: cell-based; details: filed as positive allosteric modulator, dose 0.01-10 µM, time 32.0 sec
[9] = Drug concentration in Sprague-Dawley rat brain at 24.4 micromol/kg, IG measured after 0.5 hrs by LC-MS/MS analysis; format: ADME, tissue-based; details: in vivo, po, dose 24.4 µmol/kg
[10] = Drug concentration in Sprague-Dawley rat brain at 24.4 micromol/kg, IG measured after 2 hrs by LC-MS/MS analysis; format: ADME, tissue-based; details: in vivo, po, dose 24.4 µmol/kg
[11] = Drug concentration in Sprague-Dawley rat brain at 24.4 micromol/kg, IG measured after 6 hrs by LC-MS/MS analysis; format: ADME, tissue-based; details: in vivo, po, dose 24.4 µmol/kg
[12] = molecular target: GABA-A receptor; anion channel; test: Inhibition of [35S]TBPS binding to GABA-A receptor in Sprague-Dawley rat brain cortical membrane incubated for 90 mins by liquid scintillation spectrometry; format: cell membranes, Cortex

Gamma-aminobutyric acid receptor subunit alpha-4/beta3/delta, sequence (P28472 whole entry): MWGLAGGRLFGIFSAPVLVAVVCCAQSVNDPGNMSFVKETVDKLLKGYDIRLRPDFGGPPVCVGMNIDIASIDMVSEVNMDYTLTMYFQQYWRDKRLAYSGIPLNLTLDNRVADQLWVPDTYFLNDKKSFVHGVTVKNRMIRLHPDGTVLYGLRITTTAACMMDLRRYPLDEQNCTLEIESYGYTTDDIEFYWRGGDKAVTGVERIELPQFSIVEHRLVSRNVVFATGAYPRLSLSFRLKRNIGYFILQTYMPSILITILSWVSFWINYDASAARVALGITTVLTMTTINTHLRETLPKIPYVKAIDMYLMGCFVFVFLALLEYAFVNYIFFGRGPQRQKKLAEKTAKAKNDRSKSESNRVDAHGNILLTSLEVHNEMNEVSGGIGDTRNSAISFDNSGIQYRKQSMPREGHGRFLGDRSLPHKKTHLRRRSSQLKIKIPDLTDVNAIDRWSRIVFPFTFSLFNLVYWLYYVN
Gamma-aminobutyric acid receptor subunit alpha-4/beta3/delta, sequence (P48169 whole entry): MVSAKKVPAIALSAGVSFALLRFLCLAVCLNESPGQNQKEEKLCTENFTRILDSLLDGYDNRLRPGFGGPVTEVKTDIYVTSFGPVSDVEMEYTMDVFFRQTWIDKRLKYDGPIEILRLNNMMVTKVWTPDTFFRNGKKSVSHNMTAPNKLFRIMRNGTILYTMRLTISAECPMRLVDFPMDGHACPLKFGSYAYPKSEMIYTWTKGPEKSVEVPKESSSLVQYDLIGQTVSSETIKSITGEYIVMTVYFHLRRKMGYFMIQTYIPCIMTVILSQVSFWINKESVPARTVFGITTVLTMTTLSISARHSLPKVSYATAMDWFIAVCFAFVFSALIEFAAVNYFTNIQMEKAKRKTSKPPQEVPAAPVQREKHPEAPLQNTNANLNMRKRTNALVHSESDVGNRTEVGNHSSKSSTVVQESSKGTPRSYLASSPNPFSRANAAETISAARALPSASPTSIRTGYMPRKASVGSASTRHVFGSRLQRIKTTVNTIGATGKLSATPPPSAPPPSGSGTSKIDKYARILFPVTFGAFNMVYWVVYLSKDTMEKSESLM
Gamma-aminobutyric acid receptor subunit alpha-4/beta3/delta, sequence (O14764 whole entry): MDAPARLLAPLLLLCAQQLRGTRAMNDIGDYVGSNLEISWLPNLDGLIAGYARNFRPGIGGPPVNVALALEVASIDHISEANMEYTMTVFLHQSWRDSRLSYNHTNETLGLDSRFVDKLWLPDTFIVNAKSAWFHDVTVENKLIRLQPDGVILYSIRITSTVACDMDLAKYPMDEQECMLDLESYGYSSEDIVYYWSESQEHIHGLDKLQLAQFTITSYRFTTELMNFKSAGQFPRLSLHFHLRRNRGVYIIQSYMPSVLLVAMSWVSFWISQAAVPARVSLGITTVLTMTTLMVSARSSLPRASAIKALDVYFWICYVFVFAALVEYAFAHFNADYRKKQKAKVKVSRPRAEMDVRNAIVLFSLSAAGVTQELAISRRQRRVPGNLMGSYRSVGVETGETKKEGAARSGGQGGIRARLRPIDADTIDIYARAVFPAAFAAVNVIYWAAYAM

## C[C@@]1(O)CC[C@H]2[C@H](CC[C@@H]3[C@@H]2CC[C@]2(C)[C@@H](C(=O)Cn4cnn(-c5ccnc(F)c5)c4=O)CC[C@@H]32)C1
[1]
  EC50: 0.109 µM
[2]
  CLint scaled at 1 µM: 69 mL/min/kg
[3]
  CLint scaled at 1 µM: 23 mL/min/kg
[4]
  remaining at 1 µM: 32.2%
[5]
  remaining at 1 µM: 48.1%
[6]
  Emax: 775%
[7]
  EC50: 0.056 µM
[8]
  Emax: 913%
[9]
  Ct: 708 nmol/kg
[10]
  Ct: 1188 nmol/kg
[11]
  Ct: 764 nmol/kg

## C[C@@]1(O)CC[C@H]2[C@H](CC[C@@H]3[C@@H]2CC[C@]2(C)[C@@H](C(=O)Cn4cnn(-c5cccc(F)c5)c4=O)CC[C@@H]32)C1
[1]
  EC50: 0.056 µM
[2]
  CLint scaled at 1 µM: 44 mL/min/kg
[3]
  CLint scaled at 1 µM: 3.9 mL/min/kg
[4]
  remaining at 1 µM: 44.5%
[5]
  remaining at 1 µM: 89%
[12]
  IC50: 0.0012 µM
[6]
  Emax: 566%
[7]
  EC50: 0.01 µM
[8]
  Emax: 440%
[9]
  Ct: 1708 nmol/kg
[10]
  Ct: 1530 nmol/kg
[11]
  Ct: 792 nmol/kg

## C[C@@]1(O)CC[C@H]2[C@H](CC[C@@H]3[C@@H]2CC[C@]2(C)[C@@H](C(=O)Cn4nnn(-c5cccc(F)c5)c4=O)CC[C@@H]32)C1
[1]
  EC50: 0.037 µM
[2]
  CLint scaled at 1 µM: 105 mL/min/kg
[3]
  CLint scaled at 1 µM: 11 mL/min/kg
[4]
  remaining at 1 µM: 15.6%
[5]
  remaining at 1 µM: 70%
[12]
  IC50: 0.001 µM
[6]
  Emax: 1120%
[7]
  EC50: 0.023 µM
[8]
  Emax: 602%
[9]
  Ct: 948 nmol/kg
[10]; BLD = below limit of detection
  Ct: Bld
[11]; BLD = below limit of detection
  Ct: Bld
